Data published in patent US11279733B2, “Peptide antibiotics” (priority 2017, dated 2022).

Test system: bacterial strains
Assay: Potentiation/synergy antimicrobial assay (checkerboard, FICI) with antibiotics
Format: cell-based
Settings: for MIC of antibiotic with 6442 at concn 0: 6442 0 μg/mL; for MIC of antibiotic with 6442 at concn 0.03: 6442 0.03 μg/mL; for MIC of antibiotic with 6442 at concn 0.0625: 6442 0.0625 μg/mL; for MIC of antibiotic with 8980 at conc 0: 8980 0 μg/mL; for MIC of antibiotic with 8980 at conc 1: 8980 1 μg/mL; for MIC of antibiotic with 8980 at conc 2: 8980 2 μg/mL; for MIC of antibiotic with 8980 at conc 4: 8980 4 μg/mL; for MIC of antibiotic with 8980 at conc 8: 8980 8 μg/mL; for MIC of antibiotic with 8981 at conc 0: 8981 0 μg/mL; for MIC of antibiotic with 8981 at conc 1: 8981 1 μg/mL; for MIC of antibiotic with 8981 at conc 2: 8981 2 μg/mL; for MIC of antibiotic with 8981 at conc 4: 8981 4 μg/mL; for MIC of antibiotic with 8981 at conc 8: 8981 8 μg/mL; for MIC of antibiotic with OctC4 at concn 0: OctC4 0 μg/mL; for MIC of antibiotic with OctC4 at concn 0.03: OctC4 0.03 μg/mL; for MIC of antibiotic with OctC4 at concn 0.0625: OctC4 0.0625 μg/mL; for MIC of antibiotic with OctC4 at concn 0.125: OctC4 0.125 μg/mL; for MIC of antibiotic with 6442 at concn 0.25: 6442 0.25 μg/mL; for MIC of antibiotic with 6442 at concn 0.125: 6442 0.125 μg/mL; for MIC of antibiotic with OctC4 at concn 0.25: OctC4 0.25 μg/mL
Procedure: Potentiation/synergy antimicrobial assays were conducted in the same manner as the standard MICs described above, with the following modifications. Assays were performed in 384-well non-binding surface plates (NBS; Corning 3460) and in Cation-adjusted Mueller Hinton Broth (CA-MHB; BD, Cat. No. 212322) with a final assay volume of 50 μL once bacteria was added at 5×10^5 CFU/mL. Antibiotics and octapeptin compounds were plated in duplicate as a 2-fold concentration series, in a matrix checkerboard format. The bacterial cell density of the resultant assay plates after 18-20 h incubation at 37° C. was read by optical density 600 nm (OD600) using a Tecan M1000 Pro Spectrophotometer, and analysed for ≥90% growth inhibition compared to the growth control to determine active concentrations. Synergistic effect was calculated based on the fractional inhibitory concentration index (FICI) by the following equation, where synergy is deemed FICI 0.5: […]

CN(C)c1ccc(O)c2c1C[C@H]1C[C@H]3[C@H](N(C)C)C(O)=C(C(N)=O)C(=O)[C@@]3(O)C(O)=C1C2=O [Minocycline, minocycline]
MIC of antibiotic with 6442 at concn 0 (GN_007 E. coli ESBL): 0.25 µg/mL
MIC of antibiotic with 6442 at concn 0.03 (GN_007 E. coli ESBL): 0.25 µg/mL
MIC of antibiotic with 6442 at concn 0.0625 (GN_007 E. coli ESBL): 0.125 µg/mL
MIC of antibiotic with 8980 at conc 0 (GN_007 E. coli ESBL): 0.25 µg/mL
MIC of antibiotic with 8980 at conc 1 (GN_007 E. coli ESBL): 0.125 to 0.25 µg/mL
MIC of antibiotic with 8980 at conc 2 (GN_007 E. coli ESBL): 0.125 µg/mL
MIC of antibiotic with 8980 at conc 4 (GN_007 E. coli ESBL): 0.06 to 0.125 µg/mL
MIC of antibiotic with 8980 at conc 8 (GN_007 E. coli ESBL): 0.06 to 0.125 µg/mL
MIC of antibiotic with 8981 at conc 0 (GN_007 E. coli ESBL): 0.25 µg/mL
MIC of antibiotic with 8981 at conc 1 (GN_007 E. coli ESBL): 0.25 µg/mL
MIC of antibiotic with 8981 at conc 2 (GN_007 E. coli ESBL): 0.125 to 0.25 µg/mL
MIC of antibiotic with 8981 at conc 4 (GN_007 E. coli ESBL): 0.03 to 0.125 µg/mL
MIC of antibiotic with 8981 at conc 8 (GN_007 E. coli ESBL): 0.03 to 0.125 µg/mL
MIC of antibiotic with OctC4 at concn 0 (GN_007 E. coli ESBL): 0.25 µg/mL
MIC of antibiotic with OctC4 at concn 0.03 (GN_007 E. coli ESBL): 0.25 µg/mL
MIC of antibiotic with OctC4 at concn 0.0625 (GN_007 E. coli ESBL): 0.125 to 0.25 µg/mL
MIC of antibiotic with OctC4 at concn 0.125 (GN_007 E. coli ESBL): 0.125 µg/mL
MIC of antibiotic with 8980 at conc 0 (GN_019 A. baumannii CARB): 4 µg/mL
MIC of antibiotic with 8981 at conc 0 (GN_019 A. baumannii CARB): 4 µg/mL
MIC of antibiotic with 8981 at conc 1 (GN_019 A. baumannii CARB): 2 to 16 µg/mL
MIC of antibiotic with 8981 at conc 2 (GN_019 A. baumannii CARB): 2 to 16 µg/mL
MIC of antibiotic with 6442 at concn 0 (GN_045 K. pneumoniae NDM-1): 32 µg/mL
MIC of antibiotic with 6442 at concn 0.03 (GN_045 K. pneumoniae NDM-1): 32 µg/mL
MIC of antibiotic with 6442 at concn 0.0625 (GN_045 K. pneumoniae NDM-1): 32 µg/mL
MIC of antibiotic with 8980 at conc 0 (GN_045 K. pneumoniae NDM-1): 32 µg/mL
MIC of antibiotic with 8981 at conc 0 (GN_045 K. pneumoniae NDM-1): 32 µg/mL
MIC of antibiotic with OctC4 at concn 0 (GN_045 K. pneumoniae NDM-1): 32 µg/mL
MIC of antibiotic with OctC4 at concn 0.03 (GN_045 K. pneumoniae NDM-1): 32 µg/mL
MIC of antibiotic with OctC4 at concn 0.0625 (GN_045 K. pneumoniae NDM-1): 32 µg/mL
MIC of antibiotic with OctC4 at concn 0.125 (GN_045 K. pneumoniae NDM-1): 32 µg/mL
MIC of antibiotic with 8980 at conc 0 (GN_093 A. baumannii XDR/PmxR): 8 µg/mL
MIC of antibiotic with 8981 at conc 0 (GN_093 A. baumannii XDR/PmxR): 8 µg/mL
MIC of antibiotic with 8981 at conc 1 (GN_093 A. baumannii XDR/PmxR): 4 to 32 µg/mL
MIC of antibiotic with 8981 at conc 2 (GN_093 A. baumannii XDR/PmxR): 2 to 32 µg/mL
MIC of antibiotic with 6442 at concn 0 (GN_102 K. pneumoniae XDR/PmxR): 32 µg/mL
MIC of antibiotic with 6442 at concn 0.03 (GN_102 K. pneumoniae XDR/PmxR): 16 µg/mL
MIC of antibiotic with 6442 at concn 0.0625 (GN_102 K. pneumoniae XDR/PmxR): 16 µg/mL
MIC of antibiotic with 8980 at conc 0 (GN_102 K. pneumoniae XDR/PmxR): 32 µg/mL
MIC of antibiotic with 8981 at conc 0 (GN_102 K. pneumoniae XDR/PmxR): 32 µg/mL
MIC of antibiotic with OctC4 at concn 0 (GN_102 K. pneumoniae XDR/PmxR): 32 µg/mL
MIC of antibiotic with OctC4 at concn 0.03 (GN_102 K. pneumoniae XDR/PmxR): 32 µg/mL
MIC of antibiotic with OctC4 at concn 0.0625 (GN_102 K. pneumoniae XDR/PmxR): 16 µg/mL
MIC of antibiotic with OctC4 at concn 0.125 (GN_102 K. pneumoniae XDR/PmxR): 16 µg/mL
MIC of antibiotic with 6442 at concn 0 (GN_105 P. aeruginosa PmxR): 8 µg/mL
MIC of antibiotic with 6442 at concn 0.03 (GN_105 P. aeruginosa PmxR): 4 µg/mL
MIC of antibiotic with 6442 at concn 0.0625 (GN_105 P. aeruginosa PmxR): 2 to 4 µg/mL
MIC of antibiotic with 6442 at concn 0.25 (GN_105 P. aeruginosa PmxR): 0.06 µg/mL
MIC of antibiotic with 8980 at conc 0 (GN_105 P. aeruginosa PmxR): 8 µg/mL
MIC of antibiotic with 8980 at conc 2 (GN_105 P. aeruginosa PmxR): 1 µg/mL
MIC of antibiotic with 8980 at conc 4 (GN_105 P. aeruginosa PmxR): 1 µg/mL
MIC of antibiotic with 8981 at conc 0 (GN_105 P. aeruginosa PmxR): 8 µg/mL
MIC of antibiotic with OctC4 at concn 0 (GN_105 P. aeruginosa PmxR): 8 µg/mL
MIC of antibiotic with OctC4 at concn 0.03 (GN_105 P. aeruginosa PmxR): 8 µg/mL
MIC of antibiotic with OctC4 at concn 0.0625 (GN_105 P. aeruginosa PmxR): 4 µg/mL
MIC of antibiotic with OctC4 at concn 0.125 (GN_105 P. aeruginosa PmxR): 4 µg/mL
MIC of antibiotic with 6442 at concn 0 (GN_181 E. coli mcr-1): 4 µg/mL
MIC of antibiotic with 6442 at concn 0.03 (GN_181 E. coli mcr-1): 4 µg/mL
MIC of antibiotic with 6442 at concn 0.125 (GN_181 E. coli mcr-1): 1 µg/mL
MIC of antibiotic with 6442 at concn 0.25 (GN_181 E. coli mcr-1): 0.06 µg/mL
MIC of antibiotic with 8980 at conc 0 (GN_181 E. coli mcr-1): 4 µg/mL
MIC of antibiotic with 8980 at conc 1 (GN_181 E. coli mcr-1): 1 to 2 µg/mL
MIC of antibiotic with 8980 at conc 2 (GN_181 E. coli mcr-1): 0.5 to 2 µg/mL
MIC of antibiotic with 8980 at conc 4 (GN_181 E. coli mcr-1): 0.5 to 2 µg/mL
MIC of antibiotic with 8980 at conc 8 (GN_181 E. coli mcr-1): 0.5 to 2 µg/mL
MIC of antibiotic with 8981 at conc 0 (GN_181 E. coli mcr-1): 4 µg/mL
MIC of antibiotic with 8981 at conc 1 (GN_181 E. coli mcr-1): 1 to 2 µg/mL
MIC of antibiotic with 8981 at conc 2 (GN_181 E. coli mcr-1): 1 to 2 µg/mL
MIC of antibiotic with 8981 at conc 4 (GN_181 E. coli mcr-1): 0.5 to 2 µg/mL
MIC of antibiotic with 8981 at conc 8 (GN_181 E. coli mcr-1): 0.5 to 2 µg/mL
MIC of antibiotic with OctC4 at concn 0 (GN_181 E. coli mcr-1): 4 µg/mL
MIC of antibiotic with OctC4 at concn 0.03 (GN_181 E. coli mcr-1): 4 µg/mL
MIC of antibiotic with OctC4 at concn 0.0625 (GN_181 E. coli mcr-1): 2 to 4 µg/mL
MIC of antibiotic with OctC4 at concn 0.25 (GN_181 E. coli mcr-1): 0.06 to 0.25 µg/mL

CO[C@H]1/C=C/O[C@@]2(C)Oc3c(C)c(O)c4c(O)c(c(/C=N/N5CCN(C)CC5)c(O)c4c3C2=O)NC(=O)/C(C)=C\C=C\[C@H](C)[C@H](O)[C@@H](C)[C@@H](O)[C@@H](C)[C@H](OC(C)=O)[C@@H]1C [Rifampicin, rifampicin]
MIC of antibiotic with 6442 at concn 0 (GN_102 K. pneumoniae XDR/PmxR): 32 µg/mL
MIC of antibiotic with 6442 at concn 0.125 (GN_102 K. pneumoniae XDR/PmxR): 16 µg/mL
MIC of antibiotic with 8980 at conc 0 (GN_102 K. pneumoniae XDR/PmxR): 32 µg/mL
MIC of antibiotic with 8980 at conc 1 (GN_102 K. pneumoniae XDR/PmxR): 16 µg/mL
MIC of antibiotic with 8981 at conc 0 (GN_102 K. pneumoniae XDR/PmxR): 32 µg/mL
MIC of antibiotic with 8981 at conc 1 (GN_102 K. pneumoniae XDR/PmxR): 16 to 32 µg/mL
MIC of antibiotic with 8981 at conc 2 (GN_102 K. pneumoniae XDR/PmxR): 16 µg/mL
MIC of antibiotic with 8981 at conc 4 (GN_102 K. pneumoniae XDR/PmxR): 8 to 16 µg/mL
MIC of antibiotic with OctC4 at concn 0 (GN_102 K. pneumoniae XDR/PmxR): 32 µg/mL
MIC of antibiotic with OctC4 at concn 0.0625 (GN_102 K. pneumoniae XDR/PmxR): 32 µg/mL
MIC of antibiotic with OctC4 at concn 0.125 (GN_102 K. pneumoniae XDR/PmxR): 32 µg/mL
MIC of antibiotic with 6442 at concn 0 (GN_181 E. coli mcr-1): 32 µg/mL
MIC of antibiotic with 6442 at concn 0.25 (GN_181 E. coli mcr-1): 0.25 µg/mL
MIC of antibiotic with 8980 at conc 0 (GN_181 E. coli mcr-1): 32 µg/mL
MIC of antibiotic with 8980 at conc 1 (GN_181 E. coli mcr-1): 32 µg/mL
MIC of antibiotic with 8980 at conc 2 (GN_181 E. coli mcr-1): 32 µg/mL
MIC of antibiotic with 8980 at conc 4 (GN_181 E. coli mcr-1): 32 µg/mL
MIC of antibiotic with 8981 at conc 0 (GN_181 E. coli mcr-1): 32 µg/mL
MIC of antibiotic with 8981 at conc 1 (GN_181 E. coli mcr-1): 32 µg/mL
MIC of antibiotic with 8981 at conc 2 (GN_181 E. coli mcr-1): 32 µg/mL
MIC of antibiotic with 8981 at conc 4 (GN_181 E. coli mcr-1): 32 µg/mL
MIC of antibiotic with OctC4 at concn 0 (GN_181 E. coli mcr-1): 32 µg/mL

arenicin-3
MIC of antibiotic with OctC4 at concn 0 (GN_043 P. aeruginosa PmxR): 2 µg/mL
MIC of antibiotic with OctC4 at concn 0 (GN_093 A. baumannii XDR/PmxR): 0.5 µg/mL
MIC of antibiotic with OctC4 at concn 0.125 (GN_093 A. baumannii XDR/PmxR): 0.008 µg/mL
MIC of antibiotic with OctC4 at concn 0.25 (GN_093 A. baumannii XDR/PmxR): 0.016 µg/mL
